Measured values reported in PMC12368479, “Inhibition of the Clathrin Terminal Domain—Amphiphysin Protein–Protein Interaction. Probing the Pitstop 2 Aromatic Moiety” (Chemmedchem, 2025).
Several values for one entry are separate records, joined by “and”; a condition that tells them apart may be missing. Equal entries are not always repeated. Where two headings read alike, the source gives them in different places.

What was measured:
[1] = molecular target: T1, clathrin heavy chain NTD (amino acids 1–364) – amphiphysin 1 B/C domain protein–protein interaction (NTD‐PPI) (Homo sapiens, UniProt Q00610); assay: ELISA-based clathrin inhibitor binding assay (NTD-PPI)
T1 construct: GST‐tagged clathrin heavy chain NTD (amino acids 1–364); made in house
T1 sequence (Q00610 1-364): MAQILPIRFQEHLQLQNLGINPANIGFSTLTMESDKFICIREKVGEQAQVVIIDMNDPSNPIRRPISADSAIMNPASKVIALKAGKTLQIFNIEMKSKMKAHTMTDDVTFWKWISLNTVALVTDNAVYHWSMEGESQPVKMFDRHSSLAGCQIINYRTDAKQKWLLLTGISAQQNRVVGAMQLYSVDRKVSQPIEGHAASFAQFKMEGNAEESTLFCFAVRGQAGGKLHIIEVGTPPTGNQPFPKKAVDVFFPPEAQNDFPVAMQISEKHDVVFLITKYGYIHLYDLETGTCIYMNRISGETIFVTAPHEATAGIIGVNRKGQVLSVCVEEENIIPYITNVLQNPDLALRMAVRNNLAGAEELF
Protocol: The clathrin inhibitor assay was based inhibition of protein–protein interaction (PPI) between clathrin and amphiphysin as described in our previous report.^[ [45], [54] ^] Bacterially expressed recombinant purified His6‐tagged amphiphysin 1 B/C domain (which comprises both the clathrin and the AP‐2 binding sites, amino acids 250‐578^[ [55] ^]) in screening buffer (20 mM HEPES, pH 7.4, 50 mM NaCl, 1 mM DTT, 1 mM PMSF) was added to a 384 well ELISA plate (Corning Maxisorp 3700) and bound to the plastic for 1 h at room temperature. […] Following extensive washes (with 20 mM HEPES, pH 7.4, 50 mM NaCl, 0.05% Tween 20), chemical compounds diluted in DMSO (10 μL) were added and incubated together with bacterially expressed recombinant GST‐tagged clathrin heavy chain NTD (amino acids 1–364) for 1 h at room temperature in screening buffer. After 3 washes, horseradish peroxidase‐coupled anti‐GST antibodies were added in screening buffer and the plate incubated for 40 min at room temperature. Following additional washes, 50 μL TMB (3,3′,5,5′‐tetramethylbenzidine) (Pierce Biotechnology) chromogenic substrate of horseradish peroxidase was added, and the plate was incubated for 10 min before the reaction was terminated by adding 50 μL 1N sulfuric acid to produce a yellow colour. The amount of bound protein was determined by spectrophotometric measurement in a plate reader. Relative binding was calculated as a percentage of DMSO control.

[2] = molecular target: T2, full length human Dynamin I (Homo sapiens, UniProt Q05193); assay: Dynamin GTPase activity, Malachite Green phosphate detection assay; type: biochemical
T2 construct: full length human Dynamin I expressed in Sf21 insect cells; made in house; host or cells: Sf21 insect cells
T2 sequence (Q05193 1-864): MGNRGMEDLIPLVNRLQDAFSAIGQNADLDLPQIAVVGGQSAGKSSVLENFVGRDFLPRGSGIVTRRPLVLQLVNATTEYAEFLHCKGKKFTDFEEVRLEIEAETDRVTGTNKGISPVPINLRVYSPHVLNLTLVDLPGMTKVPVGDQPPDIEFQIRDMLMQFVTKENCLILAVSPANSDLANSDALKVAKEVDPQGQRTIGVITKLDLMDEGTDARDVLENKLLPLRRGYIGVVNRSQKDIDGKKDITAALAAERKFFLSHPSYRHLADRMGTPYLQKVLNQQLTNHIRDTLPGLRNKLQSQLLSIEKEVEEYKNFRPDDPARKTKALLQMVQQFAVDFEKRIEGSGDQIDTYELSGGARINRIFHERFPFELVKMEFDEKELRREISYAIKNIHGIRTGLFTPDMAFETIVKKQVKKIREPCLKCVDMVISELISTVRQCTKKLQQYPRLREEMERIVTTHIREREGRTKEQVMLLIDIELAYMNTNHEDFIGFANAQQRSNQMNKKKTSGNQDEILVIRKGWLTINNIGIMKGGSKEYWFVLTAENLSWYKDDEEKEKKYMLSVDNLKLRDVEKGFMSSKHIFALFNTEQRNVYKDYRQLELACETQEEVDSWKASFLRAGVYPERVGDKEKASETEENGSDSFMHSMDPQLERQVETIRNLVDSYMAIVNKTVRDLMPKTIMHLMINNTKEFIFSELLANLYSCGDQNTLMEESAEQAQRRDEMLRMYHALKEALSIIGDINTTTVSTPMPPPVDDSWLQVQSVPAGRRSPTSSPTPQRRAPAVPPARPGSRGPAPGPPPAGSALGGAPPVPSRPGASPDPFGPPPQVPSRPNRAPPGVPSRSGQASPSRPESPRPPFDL
Protocol: Dynamin GTPase activity was determined in vitro using the Malachite Green phosphate detection absorbance‐based assay within a 96‐well plate format as described previously. The enzyme source was full length human Dynamin I expressed in Sf21 insect cells and affinity‐purified on GST‐Amph2‐SH3 (rat Amphiphysin 2 (494–588)).^[ [56] ^]

[3] = tested on: transferrin uptake (CME) in U2OS osteosarcoma cells; assay: Clathrin-mediated endocytosis assay: transferrin (Tfn) uptake in U2OS cells; type: cell-based; settings: for IC50 / inhibition at 5 µM / inhibition at 50 µM: Homo sapiens, U2OS; for IC50: Table 5, inhibition of transferrin‐red uptake in U2OS cells, '–'/NA = not active at 100 μM; for inhibition at 5 µM: read-out: 2-point CME (% Inhibition) 5 µM; for inhibition at 50 µM: read-out: 2-point CME (% Inhibition) 50 µM
Protocol: Using our previously reported CME assay in U2OS cells, the ability of these compounds to block endocytosis was examined (Table 5 ).^[ [48], [49] ^]
CME was examined by a high‐throughput, quantitative assay for measuring transferrin (Tfn) uptake in U2OS osteosarcoma cells, based on methods described previously.^[ [48] ^]
Compounds were made up fresh from powder stock just prior to commencing the assay, and stock solutions were stored at −20 °C for several months.

[4] = Table 5, ELISA, read-out: NTD‐PPI IC50
[5] = Table 5, dynamin GTPase, n = 1 or n = 2 as footnoted, NA = not active at 100 μM, read-out: Dynamin 1 IC50
[6] = Table S1, preliminary (n=1) unless otherwise noted, NA = not active, includes IC50 > 150 μM, read-out: Dynamin 1 IC50
[7] = Table 4, library 4, ELISA, average of duplicate measurements (n = 2), read-out: NTD‐PPI IC50
[8] = Table 4, library 4, n = 1 or n = 2 as footnoted, '–' = not active at 100 μM, read-out: Dynamin 1 IC50
[9] = Table S1, average of duplicate measurements (n=2), read-out: NTD-PPI IC50

SMILES	IC50 [1, 4]	IC50 [3]	IC50 [2, 6]	IC50 [1, 7]	IC50 ([1]; read-out: NTD‐PPI IC50 (ELISA))	IC50 [2, 8]	inhibition at 5 µM [3]	inhibition at 50 µM [3]	other results
O=C1N=C(NS(=O)(=O)c2cccc3ccccc23)SC1=Cc1ccc(-c2ccccc2)cc1 [compound 18, N‐(5‐([1,1'‐biphenyl]‐4‐ylmethylene)‐4‐oxo‐4,5‐dihydrothiazol‐2‐yl)naphthalene‐1‐sulfonamide]	1.4 µM	~43.1 µM	–	–	–	–	–	–	IC50 ([2]; Table 1, library 1, n = 1 unless noted (19: n = 2), '–' = not active at 150 μM, read-out: Dyn 1 IC50): 85 µM; IC50 [2, 5]: 85.3 µM
CCCC/C=C1\SC(NS(=O)(=O)c2cccc3ccccc23)=NC1=O [compound 42, (Z)‐N‐(4‐oxo‐5‐pentylidene‐4,5‐dihydrothiazol‐2‐yl)naphthalene‐1‐sulfonamide]	–	–	> 150 µM	–	–	–	0%	31%	IC50 ([1]; Table 3, library 3, ELISA, average of duplicate measurements (n = 2), read-out: NTD‐PPI IC50): 6.5 µM; IC50 ([2]; Table 3, library 3, n = 1 unless otherwise stated (41, 42: n = 2), '–' = not active at 100 μM, read-out: Dynamin 1 IC50): > 100 µM
O=C1N=C(NS(=O)(=O)c2cccc3ccccc23)S/C1=C\c1ccc2c(c1)OCCO2 [compound 54, (Z)‐N‐(5‐((2,3‐dihydrobenzo[b][1,4]dioxin‐6‐yl)methylene)‐4‐oxo‐4,5‐dihydrothiazol‐2‐yl)naphthalene‐1‐sulfonamide]	1.2 µM	~35 µM	–	1.2 µM	1.16 µM	60.1 ± 8.6 µM	–	–	fold activity increase (NTD‐PPI) relative to 56 ([1]; ELISA): > 3 fold; IC50 [2, 5]: 60.1 ± 8.6 µM; IC50 ([2]; values quoted in running text (section 2.2), read-out: Dynamin IC50): 60 µM; CME activity compared with Pitstop 2 ([3]; U2OS cells, in words): threefold decrease
O=C1N=C(NS(=O)(=O)c2cccc3ccccc23)S/C1=C\c1ccc2c(c1)OCO2 [compound 56, (Z)‐N‐(5‐(benzo[d][1,3]dioxol‐5‐ylmethylene)‐4‐oxo‐4,5‐dihydrothiazol‐2‐yl)naphthalene‐1‐sulfonamide]	3.2 µM	19.4 ± 10.5 µM	–	3.2 µM	< 5 µM and 4 µM	> 100 µM	–	–	NTD‐PPI activity relative to 54 ([1]; ELISA, in words): threefold less active; CME activity compared with Pitstop 2 ([3]; U2OS cells, in words): comparable; CME inhibition relative to dihydrobenzofuran 57 ([3]; U2OS cells, in words): threefold increase
Cn1cc(/C=C2\SC(NS(=O)(=O)c3cccc4ccccc34)=NC2=O)c2ccccc21 [compound 61, (Z)‐N‐(5‐((1‐methyl‐1H‐indol‐3‐yl)methylene)‐4‐oxo‐4,5‐dihydrothiazol‐2‐yl)naphthalene‐1‐sulfonamide]	–	–	> 150 µM	3.05 µM	3 µM	–	9%	69%	–
O=C1N=C(NS(=O)(=O)c2cccc3ccccc23)S/C1=C\c1cn(S(=O)(=O)c2ccccc2)c2ccccc12 [compound 68, (Z)‐N‐(4‐oxo‐5‐((1‐(phenylsulfonyl)‐1H‐indol‐3‐yl)methylene)‐4,5‐dihydrothiazol‐2‐yl)naphthalene‐1‐sulfonamide]	27 µM	> 100 µM	–	27 µM	–	99.8 ± 3.1 µM	8%	59%	IC50 [2, 5]: 99.8 ± 3.1 µM

Second part, led by results:

IC50 [1, 4]	IC50 [3]	IC50 [2, 6]	IC50 [1, 7]	IC50 ([1]; read-out: NTD‐PPI IC50 (ELISA))	IC50 [2, 8]	SMILES	inhibition at 5 µM [3]	inhibition at 50 µM [3]	other results
–	–	–	3.66 µM	–	83.8 ± 10.7 µM	O=C1N=C(NS(=O)(=O)c2cccc3ccccc23)S/C1=C\c1ccc2[nH]ccc2c1 [compound 59, (Z)‐N‐(5‐((1H‐indol‐5‐yl)methylene)‐4‐oxo‐4,5‐dihydrothiazol‐2‐yl)naphthalene‐1‐sulfonamide]	0%	83%	IC50 [1, 9]: 3.7 µM
–	–	> 150 µM	3.2 µM	–	–	O=C1N=C(NS(=O)(=O)c2cccc3ccccc23)S/C1=C\c1c[nH]c2ccccc12 [compound 60, (Z)‐N‐(5‐((1H‐indol‐3‐yl)methylene)‐4‐oxo‐4,5‐dihydrothiazol‐2‐yl)naphthalene‐1‐sulfonamide]	0%	38%	–
–	–	> 150 µM	2.37 µM	2.4 µM	> 100 µM	Cc1[nH]c2ccccc2c1/C=C1\SC(NS(=O)(=O)c2cccc3ccccc23)=NC1=O [compound 62, (Z)‐N‐(5‐((2‐methyl‐1H‐indol‐3‐yl)methylene)‐4‐oxo‐4,5‐dihydrothiazol‐2‐yl)naphthalene‐1‐sulfonamide]	6%	71%	–
–	–	> 150 µM	3.52 µM	3.5 µM	> 100 µM	Cc1ccc2[nH]cc(/C=C3\SC(NS(=O)(=O)c4cccc5ccccc45)=NC3=O)c2c1 [compound 63, (Z)‐N‐(5‐((5‐methyl‐1H‐indol‐3‐yl)methylene)‐4‐oxo‐4,5‐dihydrothiazol‐2‐yl)naphthalene‐1‐sulfonamide]	6%	68%	–
–	–	> 150 µM	3.42 µM	3.4 µM	> 100 µM	O=C1N=C(NS(=O)(=O)c2cccc3ccccc23)S/C1=C\c1c[nH]c2cc(Br)ccc12 [compound 64, (Z)‐N‐(5‐((6‐bromo‐1H‐indol‐3‐yl)methylene)‐4‐oxo‐4,5‐dihydrothiazol‐2‐yl)naphthalene‐1‐sulfonamide]	17%	70%	–
–	–	> 150 µM	2.91 µM	–	> 100 µM	O=C1N=C(NS(=O)(=O)c2cccc3ccccc23)S/C1=C\c1c[nH]c2ccc(Br)cc12 [compound 65, (Z)‐N‐(5‐((5‐bromo‐1H‐indol‐3‐yl)methylene)‐4‐oxo‐4,5‐dihydrothiazol‐2‐yl)naphthalene‐1‐sulfonamide]	0%	64%	IC50 [1, 9]: 2.9 µM
